Results on 16 molecules are retold here after patent US12435091B2, “RNA-binding protein multimerization inhibitors and methods of use thereof” (THE UAB RESEARCH FOUNDATION, priority 2020, dated 2025).

Molecules are shown by their SMILES. Converted amounts (≈) assume the structure as drawn. Read-outs that look alike come from different tables or passages of the source. Some results are limits rather than exact numbers.

Series [1] is described as follows: aqueous solubility at pH 7.4. The class given is physicochemical. The note with it: for solubility: aqueous medium at pH 7.4, pH 7.4, aqueous buffer, read-out: Sol @ pH 7.4.
Experimental: (§3) Selected compounds were assessed for their aqueous solubility, Log D and mouse and human liver microsomal stability.
Another series is described as follows: Log D at pH 7.4. Type of series: physicochemical.
A short description of a further series: in vitro. The note with it: human, liver microsomes.
The next series addresses T1, HuR (Homo sapiens, UniProt Q15717).
T1 construct: expressed in transfected cells; host or cells: U251 glioma cells, doxycycline-inducible constructs
As to the kind of experiment: cell-based split firefly luciferase-HuR dimerization assay. The settings on record: for IC50: read-out: HuR IC50. As for the experimental part: (§1) The oncogenic activity of HuR is driven by subcellular localization into the cytoplasm and formation of multimers of HuR. To develop cell based assays to characterize the ability of small molecules to disrupt this process, a split luciferase assay detecting the formation of HuR dimers was developed. The assays were performed in 96 well plates with clear bottom (Corning Inc., Corning, NY). Cells with designed constructs (30,000-50,000 in number) were plated per well; the constructs were induced by doxycycline (0.75 ug/ml) for 48 hours. The evaluated compounds at different concentrations and the corresponding vehicle as the control were administered for 6 hours. The luminescence signals were detected by using InfinitiM200 plate reader (TECAN, Morrisville, NC) in the presence of the luciferase substrate luciferin (D-Luciferin, potassium salt), which was purchased from GoldBio (St Louis, MO). A multichannel pipette (XL 3000I™, Denville Scientific, South Plainfield, NJ) was used in all procedures to ensure the experiment quality.
The assay used the coding sequence of HuR in frame with the N-terminus of firefly luciferase or the C-terminus as depicted in FIG. 2A. When HuR forms dimers in this case, luciferase is generated and with luciferin present, luminescence is generated.
(§2) Squares represent luminescence signal from reporter representing HuR dimers (U251 cells co-expressing HuR-Nluc and HuR-Cluc constructs); circles represent luminescence signal from control reporter (U251 cells expressing Fluc construct). Results are shown as mean+SD.

A short description of series [2]: Mouse liver microsomal stability in vitro. Type of series: in vitro ADME. The note with it: liver microsomes, read-out: MLM t1/2. (In general: Liver microsomes are vesicles of endoplasmic reticulum, rich in cytochrome P450 enzymes.)
Experimental: as §3
For series [3], the system named is U251 cells expressing Fluc construct. In words: control Fluc (full length luciferase) reporter assay in U251 cells. The class given is cell-based. The note with it: Homo sapiens, U-251, 6 h, read-out: Fluc Imax % Inh; for inhibition at 50 µM: Concn 50 uM. As for the experimental part: as §1, with “quality. […]” for “quality.”
as §2
Background: Reporter assays use an easily measured gene product as a stand-in for the process of interest.

Where [4] appears, read: split luciferase HuR dimerization assay, compounds administered for 6 hours.
The mark [5] stands for this setting: U251 cells co-expressing HuR-Nluc and HuR-Cluc, 6 hours of treatment.

T1 sequence (Q15717 whole entry): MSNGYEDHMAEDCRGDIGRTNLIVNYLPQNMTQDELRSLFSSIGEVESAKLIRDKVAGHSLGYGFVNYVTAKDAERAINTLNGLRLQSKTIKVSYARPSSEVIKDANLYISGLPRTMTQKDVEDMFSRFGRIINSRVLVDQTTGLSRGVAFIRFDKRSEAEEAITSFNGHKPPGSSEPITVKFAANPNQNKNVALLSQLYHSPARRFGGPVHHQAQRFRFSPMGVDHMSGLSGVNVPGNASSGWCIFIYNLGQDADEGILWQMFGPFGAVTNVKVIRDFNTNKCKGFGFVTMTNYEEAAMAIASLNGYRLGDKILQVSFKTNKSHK
Experimental for Log D at pH 7.4: as §3

On to `CN(c1cnn(C2CCOCC2)c1)c1ncc2nnn(-c3ccc4cn[nH]c4c3)c2n1` [Compound 3, 3-(1H-Indazol-6-yl)-N-methyl-N-(1-(tetrahydro-2H-pyran-4-yl)-1H-pyrazol-4-yl)-3H-[1,2,3]triazolo[4,5-d]pyrimidin-5-amine], for which the “aqueous solubility (in words)” value in series [1] is reported as “poor aqueous solubility”.
For orientation: logD means lipophilicity at a set pH, counting ionised and neutral species. Lower therefore signals lower lipophilicity. In the series “Log D at pH 7.4”, `CN(c1ccc2ncc(-c3ccc4cn[nH]c4c3)n2n1)C1CCC(F)(F)CC1` [Compound 29] registered a logD of 0.9. In addition, the results for the half-life (in “in vitro”; in series [2]) were 82.8 min and 15.3 min, respectively. Besides, the “HuR IC50” value at HuR (setting [4]) was “Insoluble^b”. In addition, in series [1], the solubility turned out to be 77.3 µM (≈ 29.6 µg/mL).
In general, IC50 refers to the concentration that inhibits the measured activity by half. For the molecule `CCCN(C)c1ccc2ncc(-c3ccc4cn[nH]c4c3)n2n1` [Compound 24, 3-(1H-Indazol-6-yl)-N-methyl-N-propylimidazo[1,2-b]pyridazin-6-amine], the logD in “Log D at pH 7.4” was > 4.18. Also, the half-life was 9.7 min in the series “in vitro” and 3.1 min in series [2]. Besides, the “HuR N/C Imax % Inh” value on HuR (Concn 100 uM) was determined as 93%. Moreover, the IC50 on HuR (setting [5]) and at HuR (setting [4]) was 2.2 µM each time. In addition, the solubility in series [1] came out at 10.9 µM (≈ 3.34 µg/mL). Further, the inhibition at 100 µM in series [3] (Concn 100 uM) was 10%.
With `CC1(C)CC(Nc2ccc3ncc(-c4ccc5[nH]ncc5c4)n3n2)CCO1` (centres unmarked) [Compound 45, N-(2,2-Dimethyltetrahydro-2H-pyran-4-yl)-3-(1H-indazol-5-yl)imidazo[1,2-b]pyridazin-6-amine], in the series “Log D at pH 7.4”, the log distribution coefficient (logD) was > 4.06. Besides, the half-life was 7.2 min in “in vitro” and 8.7 min in series [2]. Besides, the “HuR inhibition activity (in words)” value at HuR was “potent activity”. For the same molecule, the “HuR N/C Imax % Inh” value on HuR (Concn 50 uM) was determined as 92%. The IC50 at HuR (setting [5]) and on HuR (setting [4]) was 1.1 µM in each case. The solubility in series [1] came to 3.4 µM (≈ 1.23 µg/mL). In addition, the inhibition at 50 µM in series [3] was 25%.
Take `c1cc2cn[nH]c2cc1-n1nnc2cnc(NC3CCOCC3)nc21` [Compound 4, 3-(1H-Indazol-6-yl)-N-(tetrahydro-2H-pyran-4-yl)-3H-[1,2,3]triazolo[4,5-d]pyrimidin-5-amine]: the “HuR N/C Imax % Inh” value at HuR (Concn 50 uM) is on record as 85%. Moreover, the IC50 on HuR (setting [5]) stood at 5 µM. Further, the “aqueous solubility (in words)” value in series [1] was “improved aqueous solubility”. Also, the inhibition at 50 µM in series [3] is 36%.
`FC(F)(F)CNc1ccc2ncc(-c3ccc4[nH]ncc4c3)n2n1` [Compound 50, 3-(1H-Indazol-5-yl)-N-(2,2,2-trifluoroethyl)imidazo[1,2-b]pyridazin-6-amine]: the logD in “Log D at pH 7.4” is > 4.15. Moreover, the half-life stood at 12.1 min in “in vitro” and 2.6 min in series [2]. Further, the “HuR N/C Imax % Inh” value at HuR (Concn 50 uM) is given as 93%. For the same molecule, the half-inhibitory concentration (IC50) at HuR (setting [5]) and at HuR (setting [4]) was 0.19 µM each time. Besides, the solubility in series [1] was determined as 2.6 µM (≈ 0.864 µg/mL). Also, the inhibition at 50 µM in series [3] amounted to 26%.
In the case of `Cc1n[nH]c2cc(-c3cnc4ccc(N(C)C5CCOCC5)nn34)ccc12` [Compound 32, N-Methyl-3-(3-methyl-1H-indazol-6-yl)-N-(tetrahydro-2H-pyran-4-yl)imidazo[1,2-b]pyridazin-6-amine], the logD in “Log D at pH 7.4” was > 4.35. Moreover, the half-life in “in vitro” was 9 min; in series [2], 7.3 min. Also, at HuR (setting [4]), the IC50 is > 50 µM. Further, the solubility in series [1] was < 1 µM.
Consider `Cn1ncc2ccc(-c3cnc4ccc(NC5CCOCC5)nn34)cc21` [Compound 20], for which the logD in “Log D at pH 7.4” is 2.9. Besides, the values for the half-life (in the series “in vitro”; in series [2]) were 11.6 min and 8.1 min, respectively. Moreover, the “HuR N/C Imax % Inh” value on HuR (Concn 50 uM) was determined as 93%. In addition, the IC50 at HuR (setting [5]) and at HuR (setting [4]) was 1.2 µM each time. In addition, the solubility in series [1] turned out to be 79.6 µM (≈ 27.7 µg/mL). Also, the inhibition at 50 µM in series [3] stood at 35%.
Turning to `FC1(F)CCC(Nc2ccc3ncc(-c4ccc5cn[nH]c5c4)n3n2)CC1` [Compound 23, N-(4,4-Difluorocyclohexyl)-3-(1H-indazol-6-yl)imidazo[1,2-b]pyridazin-6-amine], in the series “Log D at pH 7.4”, the log distribution coefficient (logD) is > 4.23. Further, the half-life in the series “in vitro” was 27.3 min; in series [2] it was 3.9 min. The “HuR N/C Imax % Inh” value on HuR (Concn 50 uM) amounted to 92%. Besides, the IC50 on HuR (setting [5]) and at HuR (setting [4]) was 2.8 µM each time. Besides, in series [1], the solubility was found to be 2.1 µM (≈ 0.774 µg/mL). Moreover, the inhibition at 50 µM in series [3] came to 39%.
For `CCCN(C)c1ccc2ncc(-c3ccc4cnn(C)c4c3)n2n1` [Compound 30, N-Methyl-3-(1-methyl-1H-indazol-6-yl)-N-propylimidazo[1,2-b]pyridazin-6-amine], the logD in the series “Log D at pH 7.4” is > 4.55. The values for the half-life (in “in vitro”; in series [2]) were 7.9 min and 1.3 min, respectively. For the same molecule, the “HuR N/C Imax % Inh” value at HuR (Concn 50 uM) was 91%. Also, the concentration for half-maximal inhibition (IC50) at HuR (setting [5]) and at HuR (setting [4]) was 2.2 µM in each case. For the same molecule, the solubility in series [1] was 2.5 µM (≈ 0.801 µg/mL). Further, in series [3], the inhibition at 50 µM is 36%.
Consider `CCCNc1ccc2ncc(-c3ccc4[nH]ncc4c3)n2n1` [Compound 48], for which the half-life in “in vitro” came to 6.1 min; in series [2] it was 2.2 min. Also, the “HuR N/C Imax % Inh” value on HuR (Concn 50 uM) is on record as 90%. In addition, the IC50 on HuR (setting [5]) and on HuR (setting [4]) was 0.7 µM throughout. Further, in series [1], the solubility worked out at 3.2 µM (≈ 0.936 µg/mL). The inhibition at 50 µM in series [3] is 29%.
In turn, `CN(c1ccc2ncc(-c3ccc4cc[nH]c4c3)n2n1)C1CCOCC1` [Compound 13] gave a logD in “Log D at pH 7.4” of 2.2. Also, the half-life was 6.8 min in “in vitro” and 5.6 min in series [2]. Also, the concentration for half-maximal inhibition (IC50) at HuR (setting [4]) came out at 28 µM. For the same molecule, the solubility in series [1] came out at 12.8 µM (≈ 4.45 µg/mL).
As for `CCCN(C)c1ccc2ncc(-c3ccc4[nH]nc(C(C)=O)c4c3)n2n1` [Compound 53, 1-(5-(6-(Methyl(propyl)amino)imidazo[1,2-b]pyridazin-3-yl)-1H-indazol-3-yl)ethan-1-one], the logD in the series “Log D at pH 7.4” is > 4.48. Moreover, the half-life came to 6.3 min in the series “in vitro” and 1.3 min in series [2]. Further, the “HuR N/C Imax % Inh” value at HuR (Concn 50 uM) is reported as 72%. For the same molecule, the IC50 at HuR (setting [5]) and at HuR (setting [4]) was 6 µM throughout. Further, in series [1], the solubility is < 1 µM. Also, the inhibition at 50 µM in series [3] was 10%.
With `c1cc2[nH]ncc2cc1-c1cnc2ccc(NC3CCOCC3)nn12` [Compound 39, 3-(1H-Indazol-5-yl)-N-(tetrahydro-2H-pyran-4-yl)imidazo[1,2-b]pyridazin-6-amine], the “HuR N/C Imax % Inh” value on HuR (Concn 25 uM) came to 94%. The concentration for half-maximal inhibition (IC50) on HuR (setting [4]) was determined as 0.3 µM. Also, in series [3] (Concn 25 uM), the inhibition at 25 µM was 28%.
Consider `FC1(F)CCC(Nc2ccc3ncc(-c4ccc5[nH]ncc5c4)n3n2)CC1` [Compound 46, N-(4,4-Difluorocyclohexyl)-3-(1H-indazol-5-yl)imidazo[1,2-b]pyridazin-6-amine], for which the logD in “Log D at pH 7.4” was > 4.16. The half-life is 11.5 min in the series “in vitro” and 4.4 min in series [2]. Besides, the “HuR N/C Imax % Inh” value at HuR (Concn 50 uM) is 91%. Further, the IC50 on HuR (setting [5]) and at HuR (setting [4]) was 2.1 µM each time. Further, the solubility in series [1] came out at 1 µM (≈ 0.368 µg/mL). In addition, in series [3], the inhibition at 50 µM is 17%.
For the molecule `c1cc2[nH]ncc2cc1-c1cnc2ccc(OC3CCOCC3)nn12` [Compound 57, 3-(1H-Indazol-5-yl)-6-((tetrahydro-2H-pyran-4-yl)oxy)imidazo[1,2-b]pyridazine], the “HuR N/C Imax % Inh” value at HuR (Concn 50 uM) was 89%. Besides, the IC50 on HuR (setting [4]) stood at 2 µM. Besides, the inhibition at 50 µM in series [3] is 12%.
